In US12077503B2, “Substituted cyclic amides and their use as herbicides” (FMC CORPORATION, priority 2015, dated 2024):

Assays:
Format in all cases: in vivo
corn (Zea mays) [1] = test: Test G Post-Emergence Protocol
Experimental: (§1) Seeds of corn (Zea mays), giant foxtail (Setaria faberi), barnyardgrass (Echinochloa crus-galli), ivy-leaved morning glory (Ipomoea hederacea), redroot pigweed (Amaranthus retroflexus) and velvetleaf (Abutilon theophrasti) were sown in standard soil in pots. After cultivation for 8 days under controlled conditions in a glasshouse (at 24/16° C., day/night; 14 hours light; 65% humidity), the plants were sprayed with an aqueous spray solution derived from the formulation of the technical active ingredient in acetone/water (50:50) solution containing 0.5% Tween 20 (polyoxyethylene sorbitan monolaurate, CAS RN 9005-64-5) to give a final dose of 15.625, 62.5 or 250 g/ha of test compound.
(§2) The test plants were then grown on under controlled conditions in a glasshouse (at 24/16° C., day/night; 14 hours light; 65% humidity) and watered twice daily. After 13 days the test was evaluated (100=total damage to plant; 0=no damage to plant). A dash (-) means no test result.

[2] = test system: giant foxtail (Setaria faberi); test: Test G Post-Emergence Protocol
Experimental: as §1, §2

[3] = test system: velvetleaf (Abutilon theophrasti); test: Test G Post-Emergence Protocol
Experimental: as §1, §2

[4] = test system: redroot pigweed (Amaranthus retroflexus); test: Test G Post-Emergence Protocol
Experimental: as §1, §2

[5] = test system: barnyardgrass (Echinochloa crus-galli); test: Test G Post-Emergence Protocol
Experimental: as §1, §2

[6] = test system: ivy-leaved morning glory (Ipomoea hederacea); test: Test G Post-Emergence Protocol
Experimental: as §1, §2

corn (Zea mays) [7] = test: Test G Pre-Emergence Protocol; settings: evaluated after 13 days
Experimental: as §1, with “one day” for “8 days”
as §2

[8] = test system: giant foxtail (Setaria faberi); test: Test G Pre-Emergence Protocol; settings: evaluated after 13 days
Experimental: as §1, with “one day” for “8 days”
as §2

[9] = test system: velvetleaf (Abutilon theophrasti); test: Test G Pre-Emergence Protocol; settings: evaluated after 13 days
Experimental: as §1, with “one day” for “8 days”
as §2

[10] = test system: redroot pigweed (Amaranthus retroflexus); test: Test G Pre-Emergence Protocol; settings: evaluated after 13 days
Experimental: as §1, with “one day” for “8 days”
as §2

[11] = test system: barnyardgrass (Echinochloa crus-galli); test: Test G Pre-Emergence Protocol; settings: evaluated after 13 days
Experimental: as §1, with “one day” for “8 days”
as §2

[12] = test system: ivy-leaved morning glory (Ipomoea hederacea); test: Test G Pre-Emergence Protocol; settings: evaluated after 13 days; for Morningglory, Ivy-leaved damage rating (100=total damage to plant; 0=no damage to plant): 250 g ai/ha
Experimental: as §1, with “one day” for “8 days”
as §2

[13] = 15.625 g ai/ha, evaluated after 13 days (100=total damage to plant; 0=no damage to plant)
[14] = 62.5 g ai/ha, evaluated after 13 days
[15] = 250 g ai/ha, evaluated after 13 days
[16] = 62.5 g ai/ha, 100=total damage to plant, 0=no damage to plant

`COc1c(Cl)ccc([C@H]2CN(C)C(=O)[C@@H]2C(=O)Nc2cccc(F)c2F)c1F` (racemic) [Compound 1476] gave a plant injury at 15.625 g/ha (corn (Zea mays) [1]; Zea mays, post-emergence, 312 h, 15.625 g ai/ha, evaluated after 13 days (100=total damage to plant; 0=no damage to plant), read-out: Corn damage rating) of 10%, a plant injury at 62.5 g/ha (corn (Zea mays) [1]; Zea mays, post-emergence, 312 h, 62.5 g ai/ha, evaluated after 13 days, read-out: Corn damage rating (100=total damage to plant; 0=no damage to plant)) of 20% and a plant injury at 250 g/ha (corn (Zea mays) [1]; Zea mays, post-emergence, 312 h, 250 g ai/ha, evaluated after 13 days, read-out: damage to plant, Corn (100=total damage to plant; 0=no damage to plant)) of 70%. It also gave a pest or weed control at 15.625 g/ha ([2]; Setaria faberi, post-emergence, 312 h, 15.625 g ai/ha, evaluated after 13 days (100=total damage to plant; 0=no damage to plant), read-out: Foxtail, Giant damage rating) of 60%, a pest or weed control at 62.5 g/ha ([2]; Setaria faberi, post-emergence, 312 h, 62.5 g ai/ha, evaluated after 13 days, read-out: Foxtail, Giant damage rating (100=total damage to plant; 0=no damage to plant)) of 70% and a pest or weed control at 250 g/ha ([2]; Setaria faberi, post-emergence, 312 h, 250 g ai/ha, evaluated after 13 days, read-out: damage to plant, Foxtail, Giant (100=total damage to plant; 0=no damage to plant)) of 70%. The pest or weed control at 15.625 g/ha ([3]; Abutilon theophrasti, post-emergence, 312 h, 15.625 g ai/ha, evaluated after 13 days (100=total damage to plant; 0=no damage to plant), read-out: Velvetleaf damage rating) was 10%, the pest or weed control at 62.5 g/ha ([3]; Abutilon theophrasti, post-emergence, 312 h, 62.5 g ai/ha, evaluated after 13 days, read-out: Velvetleaf damage rating (100=total damage to plant; 0=no damage to plant)) was 0% and the pest or weed control at 250 g/ha ([3]; Abutilon theophrasti, post-emergence, 312 h, 250 g ai/ha, evaluated after 13 days, read-out: damage to plant, Velvetleaf (100=total damage to plant; 0=no damage to plant)) was 10%. For the same compound, the pest or weed control at 15.625 g/ha ([4]; Amaranthus retroflexus, post-emergence, 312 h, 15.625 g ai/ha, evaluated after 13 days (100=total damage to plant; 0=no damage to plant), read-out: Pigweed, Redroot damage rating) was 10%, the pest or weed control at 62.5 g/ha ([4]; Amaranthus retroflexus, post-emergence, 312 h, 62.5 g ai/ha, evaluated after 13 days, read-out: Pigweed, Redroot damage rating (100=total damage to plant; 0=no damage to plant)) was 0% and the pest or weed control at 250 g/ha ([4]; Amaranthus retroflexus, post-emergence, 312 h, 250 g ai/ha, evaluated after 13 days, read-out: damage to plant, Pigweed, Redroot (100=total damage to plant; 0=no damage to plant)) was 10%. It also gave a pest or weed control at 15.625 g/ha ([5]; Echinochloa crus-galli, post-emergence, 312 h, 15.625 g ai/ha, evaluated after 13 days (100=total damage to plant; 0=no damage to plant), read-out: Barnyardgrass damage rating) of 40%, a pest or weed control at 62.5 g/ha ([5]; Echinochloa crus-galli, post-emergence, 312 h, 62.5 g ai/ha, evaluated after 13 days, read-out: Barnyardgrass damage rating (100=total damage to plant; 0=no damage to plant)) of 50% and a pest or weed control at 250 g/ha ([5]; Echinochloa crus-galli, post-emergence, 312 h, 250 g ai/ha, evaluated after 13 days, read-out: damage to plant, Barnyardgrass (100=total damage to plant; 0=no damage to plant)) of 60%. It also gave a pest or weed control at 15.625 g/ha ([6]; Ipomoea, post-emergence, 312 h, 15.625 g ai/ha, evaluated after 13 days (100=total damage to plant; 0=no damage to plant), read-out: Morningglory, Ivy-leaved damage rating) of 20%, a pest or weed control at 62.5 g/ha ([6]; Ipomoea, post-emergence, 312 h, 62.5 g ai/ha, evaluated after 13 days, read-out: Morningglory, Ivy-leaved damage rating (100=total damage to plant; 0=no damage to plant)) of 20% and a pest or weed control at 250 g/ha ([6]; Ipomoea, post-emergence, 312 h, 250 g ai/ha, evaluated after 13 days, read-out: damage to plant, Morningglory, Ivy-leaved (100=total damage to plant; 0=no damage to plant)) of 60%. For the same compound, the “Corn damage rating (100=total damage to plant; 0=no damage to plant)” value (corn (Zea mays) [7]; 15.625 g ai/ha) was 0, the “Corn damage rating (100=total damage to plant; 0=no damage to plant)” value (corn (Zea mays) [7]; 250 g ai/ha) was 50 and the plant injury at 62.5 g/ha (corn (Zea mays) [7]; Zea mays, pre-emergence, 312 h, 62.5 g ai/ha, 100=total damage to plant, 0=no damage to plant, read-out: plant damage rating, Corn) was 0%. The “Foxtail, Giant damage rating (100=total damage to plant; 0=no damage to plant)” value ([8]; 15.625 g ai/ha) was 70, the “Foxtail, Giant damage rating (100=total damage to plant; 0=no damage to plant)” value ([8]; 250 g ai/ha) was 80 and the pest or weed control at 62.5 g/ha ([8]; Setaria faberi, pre-emergence, 312 h, 62.5 g ai/ha, 100=total damage to plant, 0=no damage to plant, read-out: plant damage rating, Foxtail, Giant) was 80%. The “Velvetleaf damage rating (100=total damage to plant; 0=no damage to plant)” value ([9]; 15.625 g ai/ha) was 0, the “Velvetleaf damage rating (100=total damage to plant; 0=no damage to plant)” value ([9]; 250 g ai/ha) was 0 and the pest or weed control at 62.5 g/ha ([9]; Abutilon theophrasti, pre-emergence, 312 h, 62.5 g ai/ha, 100=total damage to plant, 0=no damage to plant, read-out: plant damage rating, Velvetleaf) was 0%. For the same compound, the “Pigweed, Redroot damage rating (100=total damage to plant; 0=no damage to plant)” value ([10]; 15.625 g ai/ha) was 0, the “Pigweed, Redroot damage rating (100=total damage to plant; 0=no damage to plant)” value ([10]; 250 g ai/ha) was 0 and the pest or weed control at 62.5 g/ha ([10]; Amaranthus retroflexus, pre-emergence, 312 h, 62.5 g ai/ha, 100=total damage to plant, 0=no damage to plant, read-out: plant damage rating, Pigweed, Redroot) was 0%. For the same compound, the “Barnyardgrass damage rating (100=total damage to plant; 0=no damage to plant)” value ([11]; 250 g ai/ha) was 80, the pest or weed control at 15.625 g/ha ([11]; Echinochloa crus-galli, pre-emergence, 312 h, 15.625 g ai/ha, read-out: Barnyard grass damage rating (100=total damage to plant; 0=no damage to plant)) was 60% and the pest or weed control at 62.5 g/ha ([11]; Echinochloa crus-galli, pre-emergence, 312 h, 62.5 g ai/ha, 100=total damage to plant, 0=no damage to plant, read-out: plant damage rating, Barnyardgrass) was 70%. For the same compound, the “Morningglory, Ivy-leaved damage rating (100=total damage to plant; 0=no damage to plant)” value [12] was 0, the pest or weed control at 15.625 g/ha ([12]; Ipomoea, pre-emergence, 312 h, 15.625 g ai/ha, read-out: Morning-glory, Ivy-leaved damage rating (100=total damage to plant; 0=no damage to plant)) was 0% and the pest or weed control at 62.5 g/ha ([12]; Ipomoea, pre-emergence, 312 h, 62.5 g ai/ha, 100=total damage to plant, 0=no damage to plant, read-out: plant damage rating, Morningglory, Ivy-leaved) was 0%.
With `Cc1ccc(NC(=O)C2C(=O)N(C)CC2c2ccc(C(F)(F)F)cc2)c([N+](=O)[O-])c1` (racemic) [Compound 1592] the Corn damage rating (corn (Zea mays) [1]; [13]) was 0, the “Corn damage rating (100=total damage to plant; 0=no damage to plant)” value (corn (Zea mays) [1]; [14]) was 0 and the “damage to plant, Corn (100=total damage to plant; 0=no damage to plant)” value (corn (Zea mays) [1]; [15]) was 10. The “Foxtail, Giant damage rating” value [2, 13] was 0, the “Foxtail, Giant damage rating (100=total damage to plant; 0=no damage to plant)” value [2, 14] was 60 and the “damage to plant, Foxtail, Giant (100=total damage to plant; 0=no damage to plant)” value [2, 15] was 70. The Velvetleaf damage rating [3, 13] was 0, the “Velvetleaf damage rating (100=total damage to plant; 0=no damage to plant)” value [3, 14] was 10 and the “damage to plant, Velvetleaf (100=total damage to plant; 0=no damage to plant)” value [3, 15] was 10. For the same compound, the “Pigweed, Redroot damage rating” value [4, 13] was 0, the “Pigweed, Redroot damage rating (100=total damage to plant; 0=no damage to plant)” value [4, 14] was 0 and the “damage to plant, Pigweed, Redroot (100=total damage to plant; 0=no damage to plant)” value [4, 15] was 10. The Barnyardgrass damage rating [5, 13] was 0, the “Barnyardgrass damage rating (100=total damage to plant; 0=no damage to plant)” value [5, 14] was 10 and the “damage to plant, Barnyardgrass (100=total damage to plant; 0=no damage to plant)” value [5, 15] was 30. For the same compound, the “Morningglory, Ivy-leaved damage rating” value [6, 13] was 0, the “Morningglory, Ivy-leaved damage rating (100=total damage to plant; 0=no damage to plant)” value [6, 14] was 40 and the “damage to plant, Morningglory, Ivy-leaved (100=total damage to plant; 0=no damage to plant)” value [6, 15] was 60. The “Corn damage rating (100=total damage to plant; 0=no damage to plant)” value (corn (Zea mays) [7]; 15.625 g ai/ha) was 0, the “plant damage rating, Corn” value (corn (Zea mays) [7]; [16]) was 0 and the “Corn damage rating (100=total damage to plant; 0=no damage to plant)” value (corn (Zea mays) [7]; 250 g ai/ha) was 0. The “Foxtail, Giant damage rating (100=total damage to plant; 0=no damage to plant)” value ([8]; 15.625 g ai/ha) was 0, the “plant damage rating, Foxtail, Giant” value [8, 16] was 20 and the “Foxtail, Giant damage rating (100=total damage to plant; 0=no damage to plant)” value ([8]; 250 g ai/ha) was 70. For the same compound, the “Velvetleaf damage rating (100=total damage to plant; 0=no damage to plant)” value ([9]; 15.625 g ai/ha) was 0, the “plant damage rating, Velvetleaf” value [9, 16] was 0 and the “Velvetleaf damage rating (100=total damage to plant; 0=no damage to plant)” value ([9]; 250 g ai/ha) was 0. The “Pigweed, Redroot damage rating (100=total damage to plant; 0=no damage to plant)” value ([10]; 15.625 g ai/ha) was 0, the “plant damage rating, Pigweed, Redroot” value [10, 16] was 0 and the “Pigweed, Redroot damage rating (100=total damage to plant; 0=no damage to plant)” value ([10]; 250 g ai/ha) was 30. For the same compound, the “Barnyardgrass damage rating (100=total damage to plant; 0=no damage to plant)” value ([11]; 15.625 g ai/ha) was 0, the “plant damage rating, Barnyardgrass” value [11, 16] was 10 and the “Barnyardgrass damage rating (100=total damage to plant; 0=no damage to plant)” value ([11]; 250 g ai/ha) was 50. For the same compound, the “Morning-glory, Ivy-leaved damage rating (100=total damage to plant; 0=no damage to plant)” value ([12]; 15.625 g ai/ha) was 10, the “plant damage rating, Morningglory, Ivy-leaved” value [12, 16] was 0 and the “Morningglory, Ivy-leaved damage rating (100=total damage to plant; 0=no damage to plant)” value [12] was 10.
